Here are results for 88 compounds from a melting point compilation (Tetko et al.; mined from patent text by program, amines drawn as free bases though some values may be those of a salt).

`CCCN(CCC)C1CNc2c(cc(Br)cc2[N+](=O)[O-])C1` (stereo not drawn) yielded a melting point of 88 to 91 °C.

With `CCOCc1nc2c(N)nc3cc(-c4cccnc4)ccc3c2n1CC(C)C`, the melting point was 180 to 182 °C.

The compound `COc1cc2ncnc(N3CCC(NCc4ccccn4)CC3)c2cc1OC` came in with a melting point of 151 to 155 °C.

The compound `CCOC(=O)c1cc(-c2csc(N(C)S(=O)(=O)c3ccccc3)n2)c(=O)[nH]c1C` came in with a melting point of 231 to 234 °C.

Turning to `CCOC(=O)CCc1cc(C(=O)CCCC(=O)O)ccc1OC`, the melting point was 124 to 126 °C.

`COC(=O)c1cccc(-c2ccc(O)cc2)c1` displayed a melting point of 135 to 136 °C.

In the case of `COc1ccc(CNC(=O)C(Cc2ccccc2)NC(=O)Nc2n[nH]c(=S)s2)cc1OC` (stereo not drawn), the melting point fell in the range of 207 to 210 °C.

`O=[N+]([O-])c1ccc(S(=O)(=O)NCC2CCN(C[C@H]3COc4ccc(Cl)cc4O3)CC2)cc1`: the melting point lay in the range of 147 to 148 °C.

For `CCCCCC(=O)NCCc1ccc(S(=O)(=O)NC(=O)c2ccc(C(=O)NCC(=O)O)nc2)cc1`, the melting point was in the range of 115 to 116 °C.

As for `CC(C)c1nc(COC(=O)N[C@H](C(=O)N[C@@H](Cc2ccccc2)[C@@H](O)C[C@H](Cc2ccccc2)NC(=O)OCc2cncs2)C(C)C)cs1`, the melting point was in the range of 172 to 174 °C.

Compound `N#CCCNC(=O)c1cccc(-c2cccc3sc(Cc4ccc(F)c(F)c4)cc23)c1` came in with a melting point of 123 to 124 °C.

Regarding `FC(F)c1cc(-c2cccc(C(F)(F)F)c2)nc2c(I)cnn12`, the melting point was 130 °C.

The compound `O=C(C=Cc1ccc2c(c1)OCO2)c1cccc(O)c1` displayed a melting point of 188 to 189 °C.

`CN(C)CCOc1cc(C(=O)N2CCC(N(C)CCc3ccccc3)CC2)ccc1-n1cncn1` came in with a melting point of 83 to 85 °C.

In the case of `NC(=O)C1(c2ccc(Br)nc2)CCCC1`, the melting point was in the range of 211 to 212 °C.

For `CC(C)(C)c1cc(NC(=O)NNC(=O)c2ccc(N)cc2)cc(C(C)(C)C)c1O`, the melting point lay in the range of 245 to 246 °C.

In turn, `N#Cc1cc(F)c(-c2ncnc(C(F)F)c2Cl)cc1[N+](=O)[O-]` had a melting point of 100 to 102 °C.

In turn, `COC(=O)CCCc1cc2nc(C(F)(F)F)ccc2n1S(=O)(=O)c1ccc2c(c1)OCCN2C` gave a melting point of 118 °C.

Regarding `CN1CCN(Cc2ccc3nc(-c4ccc(Cl)c(C#Cc5cnc6cccnn56)c4)[nH]c3c2)CC1`, the melting point lay within 156 to 157 °C.

Compound `Cc1ccc(Cc2c(C(F)(F)F)[nH][nH]c2=O)cc1` had a melting point of 150 to 152 °C.

`CC(C)Cc1cc2cc(O)ccc2c(Oc2ccc(/C=C/C(=O)O)cc2)c1-c1ccccc1` came in with a melting point of 126 to 128 °C.

Compound `O=C1CCC(c2ccc(CCCCNC(=O)c3cccnc3)cc2)=NN1` showed a melting point of 178 to 179 °C.

Compound `CCc1ccc(NC(=O)N[C@H]2C[C@H](C(=O)O)Nc3cc(Cl)cc(Cl)c32)cc1` (relative stereo) yielded a melting point of 195 to 197 °C.

`Nc1ncc(-c2noc(-c3cnn4c(C(F)(F)F)cc(-c5ccc(C(F)(F)F)c(Cl)c5)nc34)n2)cn1` gave a melting point of 279 °C.

`Cc1ccc(-c2csc(NC(=O)Nc3nc(-c4ccc(C)cc4)cs3)n2)cc1` gave a melting point greater than 300 °C.

With `COc1cc2c(cc1-c1cccnc1)-c1c(-c3cccs3)c3c(n1CC2)C(=O)N(C(C)C)CCNC3`, the melting point fell in the range of 227 to 229 °C.

On to `COc1cc(OC)c(F)c(N)c1F`, for which the melting point lay in the range of 78 to 79 °C.

In turn, `CN(CC[C@H]1CC[C@H](C(=O)O)CC1)C(=O)OC(C)(C)C` showed a melting point of 212 to 214 °C.

In turn, `CCc1nc(/C=C\c2cn(-c3ccccc3)nc2OCc2ccc(OCc3nc(N4CCOCC4)sc3C)c(OC)c2)cs1` showed a melting point of 76 to 78 °C.

Compound `O=c1oc2ccccc2c(O)c1[C@@H]1C[C@@H](c2ccc(OCc3ccc(C(F)(F)F)cc3)cc2)Cc2ccccc21` (relative stereo) gave a melting point of 153 to 155 °C.

Compound `COC(=O)C1CC(=O)N(Cc2ccccc2)C1` (stereo not drawn) gave a melting point of 63 to 65 °C.

`O=[N+]([O-])c1c(OC(F)(F)F)ccc2nc(Cl)sc12` had a melting point of 64 °C.

`CCOC(=O)c1c(CCc2ccc(OC)cc2)oc2ccc(Br)cc12` came in with a melting point of 73 to 75 °C.

For the compound `CCCCC(=O)c1c(CN2CCOCC2)nc2cc(OC)c(OC)cc2c1-c1ccc(OC)c(OC)c1`, the melting point was in the range of 137 to 138 °C.

Compound `O=C1N(Cc2ccc(-c3ccccn3)cc2)c2ccccc2C12COc1cc3c(cc12)CCO3` (stereo not drawn) returned a melting point of 217 to 219 °C.

As to `CC(C)NC(=O)NC1CCCc2sccc21` (stereo not drawn), the melting point lay within 223 to 226 °C.

In turn, `Cc1cc(-c2c3c(cc4ccc(O)cc24)-c2ccc(O)cc2CO3)ccc1F` displayed a melting point of 185 to 188 °C.

Consider `Cc1c(Br)c(=O)c(-c2ccc(Cl)cc2)c(C)n1C`, for which the melting point lay within 264 to 266 °C.

Turning to `O=c1[nH]c(N2CCN(CCCCN3CCCCC3)CC2)cc2ccc(Br)cc12`, the melting point is 211 to 212 °C.

In turn, `COC(=O)c1cn(CCO)nc1[N+](=O)[O-]` registered a melting point of 93 to 95 °C.

`Cc1oc(-c2ccc(C(F)(F)F)cc2)nc1COc1ccc(CN(O)C(=O)NN)cc1`: the melting point lay within 94 to 95 °C.

With `CCOC(=O)Nc1nn(C)c2cc(OCc3ccccc3)ccc12`, the melting point came out at 204 °C.

Compound `COc1cc(Nc2nccc(-c3ccc(N4CC(O)C4)nc3)n2)cc(OC)c1OC` gave a melting point of 186 to 187 °C.

For `O=C(CCCCCl)c1cc2c3c(c1)CCC(=O)N3CCC2`, the melting point is 83 to 84 °C.

`Cn1cc(C2(c3c4n(c5ccccc35)CCCCC4)CC(=O)OC2=O)c2ccccc21` (stereo not drawn) came in with a melting point of 257 to 259 °C.

In the case of `CC(C)(C)OC(=O)N(c1ccccc1)S(=O)(=O)c1ccc2c(c1)CCC(C)(C)O2`, the melting point is 117 to 120 °C.

Compound `O=c1[nH]c(=S)[nH]c2c1cnn2CC(O)c1ccccc1` (stereo not drawn) came in with a melting point of 264 to 265 °C.

On to `CCOC(=O)c1ccc(COCc2csc3nc(C(=O)NCc4cccc(OC)c4)[nH]c(=O)c23)cc1`, for which the melting point amounted to 173 °C.

In the case of `[N-]=[N+]=NC[C@H]1OC(O)[C@H](O)[C@@H](O)[C@@H]1O` (stereo partly drawn), the melting point fell in the range of 128 to 130 °C.

`N#CC1=C(N)CCN(C(=O)c2ccccc2)C1` yielded a melting point of 178 to 181 °C.

Consider `O=Cc1cc(-n2nnnc2C(F)(F)F)ccc1OCC1CC1`, for which the melting point was 80 to 82 °C.

With `CCCCCCCCCCCCCCCCCCCCCCOC(=O)C(C)O` (stereo not drawn), the melting point turned out to be 57 °C.

`CCOC(=O)[C@@H]([C@H](N)C(=O)O)[C@@H](C)O`: the melting point lay in the range of 150 to 151 °C.

In turn, `CC(C)Oc1c(CO)cnc2c(C(F)(F)F)cccc12` registered a melting point of 73 to 74 °C.

In turn, `COC(=O)C1=C(CN2CCN(C)CC2)Nc2ccnc(OC(C)C)c2C1c1ccccc1` (stereo not drawn) displayed a melting point of 149 to 151 °C.

Compound `CC(C)Cn1c(CNC(=O)OC(C)(C)C)c(-c2ccccc2)c2cc(OC(C)(C)C(=O)O)ccc2c1=O` returned a melting point of 219 to 220 °C.

Compound `c1ccc(OCc2nnn[nH]2)cc1` had a melting point of 128 to 131 °C.

`Cc1ncnc2c1ncn2[C@H](C)[C@](O)(Cn1cncn1)c1ccc(F)cc1F` displayed a melting point of 200 to 201 °C.

With `c1ccc(C(c2ccccc2)N2CCc3ccccc32)cc1`, the melting point lay in the range of 62 to 63.5 °C.

As to `CC(C)(SCCCCCCNS(=O)(=O)c1ccc(Cl)cc1)C(=O)O`, the melting point is 93 to 94 °C.

In turn, `C=C(C(=O)c1ccc(OCC(=O)O)c(Cl)c1Cl)C(C)(C)C` had a melting point of 160 to 162 °C.

`N#CCc1nc(-c2ccc(Cl)cc2)sc1-c1ccccc1` displayed a melting point of 118 to 120 °C.

With `O=C1NCCc2[nH]c3c(F)ccc(F)c3c21`, the melting point is 221 to 223 °C.

As to `CC(C)(C)c1cc(Nc2ccccc2C#N)cc(C(C)(C)C)c1O`, the melting point turned out to be 172 °C.

`CC(C)C1OC(=Nc2ccccn2)c2c1nc1c(C(F)(F)F)cccc1c2O` (stereo not drawn): the melting point is 178 to 180 °C.

The compound `CC(=O)NC(CCCCCCCCCCCCO)(COC(C)=O)COC(C)=O` gave a melting point of 75 to 76.5 °C.

Compound `COc1ccc(OCCCCCN2CCN(Sc3ccc[nH]3)CC2)cc1` came in with a melting point of 83 to 85 °C.

For `NC(=O)CC(CC(N)=O)c1cccc(OCc2ccccc2)c1`, the melting point is 205 to 207 °C.

Consider `O=C(O)c1cn(-c2ccc(SC(F)(F)F)cc2)cn1`, for which the melting point lay within 247 to 248 °C.

`CCN(CC)CCNC(=O)N1CCCC(S(=O)(=O)c2ccc(OCCOC)cc2)C1` (stereo not drawn) came in with a melting point of 98 to 99 °C.

Turning to `OCCCCCCc1ccc(OCc2coc(/C=C/c3ccccc3)n2)cc1`, the melting point is 94 to 95 °C.

As for `CCOC(=O)C1=Cc2cccc(N3CCCC3=O)c2OCC1`, the melting point lay within 64 to 66 °C.

For `CC1(C)Oc2ccc(-c3nnnn3CCCC(=O)O)cc2[C@@H](Oc2ccc(O)nn2)[C@]1(C)O`, the melting point was in the range of 116 to 126 °C.

As to `CC(C)C[C@H](O)[C@H](O)[C@H](Cc1ccccc1)NC(=O)OC(C)(C)C`, the melting point lay in the range of 128 to 130 °C.

With `CC(C)n1cnc2c(NCc3ccncc3)nc(F)nc21`, the melting point was in the range of 170 to 173 °C.

As to `C=CC(CCc1ccccc1)NC(=O)OC(C)(C)C` (stereo not drawn), the melting point amounted to 53 °C.

Take `COc1cc(CCCCC2OC(=O)NC2=O)ccc1OCc1nc(-c2ccccc2)oc1C` (stereo not drawn): the melting point is 135 to 136 °C.

With `Cc1csc(N)c1C(=O)c1ccc(Cl)cc1`, the melting point was in the range of 148 to 150 °C.

The compound `CCCCCCCC(=O)OCCc1c(-c2ccccc2)nc(N)n2ncnc12` displayed a melting point of 89 to 91 °C.

The compound `Cn1ncnc1-n1cc(C(=O)O)c(=O)c2cc(F)c(F)cc21` showed a melting point of 254 to 264 °C.

Regarding `CC(C)c1ccc2c(c1)C(=O)CC21CNC(=O)C1` (stereo not drawn), the melting point lay in the range of 165 to 167 °C.

For the compound `CC1(C)OC(=O)C(Sc2ccccc2)=C1c1ccc(S(C)(=O)=O)cc1`, the melting point was in the range of 98 to 114 °C.

Take `Cc1cccc(C(O)CN2CCNC2=S)c1` (stereo not drawn): the melting point turned out to be 100 °C.

As to `CCOC(=O)C1=C(C)N=C(NC)N(C(=O)OCC)C1c1cccc([N+](=O)[O-])c1` (stereo not drawn), the melting point was in the range of 112 to 114 °C.

Compound `CN(C)C(=S)Sc1cc(=O)n(Cc2ccccc2)s1` showed a melting point of 184 to 186 °C.

As to `COc1ccc(CC#N)c2c1OC(C)(C)O2`, the melting point is 58 to 59 °C.

In turn, `C=CCc1cc(O)c(CC=C)c(C=NO)c1O` yielded a melting point of 241 to 243 °C.

In turn, `CN(c1cccc2cc(C(=O)NCC(C)(C=O)SCc3ccccc3)[nH]c12)S(=O)(=O)c1cccs1` (stereo not drawn) came in with a melting point of 149 to 150 °C.

As usually defined, the melting point is the temperature of the solid-liquid transition.
